Measurements from patent US20020065227A1, “Charged compounds comprising a nucleic acid binding moiety and uses therefor” (priority 2000, published 2002).
Values after ≈ are worked out from the molar mass of the structure shown. Values joined by “and” are separate entries in the source; they are usually repeats but may differ in a detail not shown here. Equal entries are not always repeated. Where two headings read alike, the source gives them in different places.

Columns and labels:
[1] = tested on: Propionibacterium acnes (33179); assay: MIC, NCCLS broth microdilution; type: cell-based; conditions: anaerobe
[2] = tested on: Clostridium perfringens (13124); assay: microbe, parasite or virus in culture; type: cell-based
[3] = tested on: Listeria monocytogenes (19115); assay: MIC, NCCLS broth microdilution; type: cell-based; conditions: read-out: MIC
Bacillus cereus (11778) = assay: MIC, NCCLS broth microdilution; type: cell-based
Esherichia coli (25922) = assay: MIC, NCCLS broth microdilution; type: cell-based, Escherichia coli; conditions: Escherichia coli (25922)
[4] = tested on: Staphylococcus aureus (29213); assay: MIC, NCCLS broth microdilution; type: cell-based
[5] = tested on: Peptostreptococcus asaccharolytics (29743); assay: MIC, NCCLS broth microdilution; type: cell-based; conditions: anaerobe
[6] = tested on: Streptococcus pneumoniae (49619); assay: MIC, NCCLS broth microdilution; type: cell-based; conditions: Streptococcus pneumoniae (49619)
Bacillus subtilis (6633) = assay: MIC, NCCLS broth microdilution; type: cell-based
[7] = tested on: Streptococcus pyogenes (49339); assay: MIC, NCCLS broth microdilution; type: cell-based; conditions: Streptococcus pyogenes (49339), Table Ia: Streptococcus Group A(49339)
[8] = tested on: Enterococcus faecalis (29212); assay: MIC, NCCLS broth microdilution; type: cell-based; conditions: Enterococcus faecalis (29212)
[9] = tested on: Staphylococcus aureus (33591) (methicillin resistant); assay: MIC, NCCLS broth microdilution; type: cell-based; conditions: Staphylococcus aureus (33591), methicillin resistant (MRSA)
[10] = tested on: Staphylococcus epidermidis (12228); assay: MIC, NCCLS broth microdilution; type: cell-based; conditions: Staphylococcus epidermidis (12228)
[11] = tested on: Corynebacterium Group A (49676); assay: MIC, NCCLS broth microdilution; type: cell-based
[12] = tested on: Haemophilus influenzae (49247); assay: MIC, NCCLS broth microdilution; type: cell-based; conditions: Haemophilus influenzae (49247); read-out: MIC
Micrococcus luteus (381) = assay: MIC, NCCLS broth microdilution; type: cell-based
[13] = tested on: Pseudomona aeruginosa (27853); assay: MIC, NCCLS broth microdilution; type: cell-based
[14] = tested on: Enterococcus faecium (51559) (vacomycin resistant); assay: MIC, NCCLS broth microdilution; type: cell-based; conditions: Enterococcus faecium (51559), vancomycin resistant
AGTACT = assay: DNase I footprint titration, AGTACT site; type: binding; conditions: equilibrium association constant Ka; pH 7.0, 22° C.
ATTACT = assay: DNase I footprint titration, ATTACT site; type: binding; conditions: equilibrium association constant Ka; pH 7.0, 22° C.
[15] = tested on: Streptococcus pneumoniae (51422) (multiple drug resistant); assay: MIC, NCCLS broth microdilution; type: cell-based
Candida albicans (90028) = assay: MIC, antifungal assay; type: cell-based
ACTACT = assay: DNase I footprint titration, ACTACT site; type: binding; conditions: equilibrium association constant Ka; pH 7.0, 22° C.
AATACT = assay: DNase I footprint titration, AATACT site; type: binding; conditions: equilibrium association constant Ka; pH 7.0, 22° C.
[16] = tested on: Candida albicans (38247) (Polyene resistant); assay: MIC, antifungal assay; type: cell-based

## CC1COc2c(N3CCN(C)CC3)c(F)cc3c(=O)c(C(=O)O)cn1c23 (stereo not drawn) [Ofloxacin, ofloxacin, reference compound]
[1]; Cutibacterium acnes, read-out: MIC
  MIC: 0.25 µg/mL (≈ 0.692 µM)
[2]; Clostridium perfringens
  MIC: 0.25 µg/mL (≈ 0.692 µM)
[3]
  MIC: 1 µg/mL (≈ 2.77 µM)
Bacillus cereus (11778); Bacillus cereus
  MIC: 0.125 µg/mL (≈ 0.346 µM)
Esherichia coli (25922); read-out: MIC
  MIC: 0.03 µg/mL (≈ 0.083 µM)
[4]; Staphylococcus aureus
  MIC: 0.125 µg/mL (≈ 0.346 µM)
[5]; read-out: MIC
  MIC: 0.5 µg/mL (≈ 1.38 µM)
[6]; read-out: MIC
  MIC: 1 to 2 µg/mL (≈ 2.77 to 5.53 µM)
Bacillus subtilis (6633); Bacillus subtilis
  MIC: 0.125 µg/mL (≈ 0.346 µM)
[7]; read-out: MIC
  MIC: 1 µg/mL (≈ 2.77 µM)
[8]; read-out: MIC
  MIC: 8 µg/mL (≈ 22.1 µM)
[9]; read-out: MIC
  MIC: 0.25 µg/mL (≈ 0.692 µM)
[10]; read-out: MIC
  MIC: 0.25 µg/mL (≈ 0.692 µM)
[11]; Corynebacterium
  MIC: 0.125 µg/mL (≈ 0.346 µM)
[12]
  MIC: 0.25 µg/mL (≈ 0.692 µM)
Micrococcus luteus (381); read-out: MIC
  MIC: 1 µg/mL (≈ 2.77 µM)
[13]
  MIC: > 128 µg/mL
[14]; read-out: MIC
  MIC: 8 µg/mL (≈ 22.1 µM)

## Cn1cc(NC(=O)c2cc(NC(=O)c3nsc(NCCN4CCOCC4)c3Cl)cn2C)cc1C(N)=O [V-bb]
Bacillus cereus (11778); Bacillus cereus, strain not stated
  MIC: 8 µg/mL (≈ 15 µM)

## CN(C)CCCNC(=O)c1cc(NC(=O)c2cc(NC(=O)c3cc(NC(=O)c4nsc(NCCN)c4Cl)cn3C)cn2C)cn1C [V-c]
[1]
  MIC: 8 µg/mL (≈ 11.9 µM)
[2]; Clostridium perfringens (13124), anaerobe
  MIC: 2 µg/mL (≈ 2.98 µM)
Bacillus cereus (11778); Bacillus cereus (11778)
  MIC: 4 µg/mL (≈ 5.95 µM)
Esherichia coli (25922)
  MIC: >128 µg/mL
AGTACT
  Binding Constant, sequence AGTACT: 5e+09 M⁻¹
[4]; Staphylococcus aureus (29213)
  MIC: 8 µg/mL (≈ 11.9 µM)
[5]
  MIC: 0.5 µg/mL (≈ 0.744 µM)
[6]
  MIC: 2 µg/mL (≈ 2.98 µM)
ATTACT
  Binding Constant, sequence ATTACT: 2e+08 M⁻¹
Bacillus subtilis (6633); Bacillus subtilis (6633)
  MIC: 4 µg/mL (≈ 5.95 µM)
[7]
  MIC: 2 µg/mL (≈ 2.98 µM)
[8]
  MIC: 4 µg/mL (≈ 5.95 µM)
[9]
  MIC: 16 µg/mL (≈ 23.8 µM)
[10]
  MIC: 8 µg/mL (≈ 11.9 µM)
[15]
  MIC: 4 µg/mL (≈ 5.95 µM)
[11]; Corynebacterium Group A (49676)
  MIC: 1 µg/mL (≈ 1.49 µM)
Candida albicans (90028)
  MIC: 8 µg/mL (≈ 11.9 µM)
Micrococcus luteus (381)
  MIC: 8 µg/mL (≈ 11.9 µM)
ACTACT
  Binding Constant, sequence ACTACT: 2e+08 M⁻¹
[13]; Pseudomona aeruginosa (27853)
  MIC: >128 µg/mL
AATACT
  Binding Constant, sequence AATACT: 2e+08 M⁻¹
[14]
  MIC: 8 µg/mL (≈ 11.9 µM)

## Cn1cc(NC(=O)c2cc(NC(=O)c3cc(NC(=O)c4nsc(Cl)c4Cl)cn3C)cn2C)cc1C(=O)NCCC(=N)N [V-ee]
Bacillus cereus (11778); Bacillus cereus (11778)
  MIC: 0.25 µg/mL (≈ 0.395 µM)
Esherichia coli (25922)
  MIC: 64, μg/mL and 32 μg/mL
[4]; Staphylococcus aureus (29213)
  MIC: 0.25, μg/mL and 0.125 μg/mL
[16]
  MIC: 2 µg/mL (≈ 3.16 µM)

## Cn1cc(NC(=O)c2cc(NC(=O)c3cc(NC(=O)c4nsc(NCCCNC5CCCCC5)c4Cl)cn3C)cn2C)cc1C(=O)NCCCNC1CCCCC1 [V-ff]
Bacillus cereus (11778); Bacillus cereus (11778)
  MIC: 2 µg/mL (≈ 2.43 µM)
Esherichia coli (25922)
  MIC: 32 µg/mL (≈ 38.9 µM)
[4]; Staphylococcus aureus (29213)
  MIC: 1 µg/mL (≈ 1.22 µM)
[16]
  MIC: 16 µg/mL (≈ 19.5 µM)

## Cn1cc(NC(=O)c2cc(NC(=O)c3cc(NC(=O)c4nsc(NCCN5CCOCC5)c4Cl)cn3C)cn2C)cc1C(=O)NCCN1CCOCC1 [V-gg]
Esherichia coli (25922)
  MIC: 32 µg/mL (≈ 41.5 µM)
[4]; Staphylococcus aureus (29213)
  MIC: 2, μg/mL and 1 μg/mL
[16]
  MIC: 32 µg/mL (≈ 41.5 µM)

## Cn1cc(NC(=O)c2cc(NC(=O)c3cc(NC(=O)c4nsc(N5CCCCC5)c4Cl)cn3C)cn2C)cc1C(=O)NCCN1CCOCC1 [V-hh]
Bacillus cereus (11778); Bacillus cereus (11778)
  MIC: 1 µg/mL (≈ 1.38 µM)
Esherichia coli (25922)
  MIC: 32 µg/mL (≈ 44.1 µM)
[4]; Staphylococcus aureus (29213)
  MIC: 1 µg/mL (≈ 1.38 µM)
[16]
  MIC: 32 µg/mL (≈ 44.1 µM)

## COc1snc(C(=O)Nc2cc(C(=O)Nc3cc(C(=O)Nc4cc(C(=O)NCCC(=N)N)n(C)c4)n(C)c3)n(C)c2)c1Cl [V-jj]
Bacillus cereus (11778); Bacillus cereus (11778)
  MIC: 0.25 µg/mL (≈ 0.397 µM)
Esherichia coli (25922)
  MIC: 32 µg/mL (≈ 50.9 µM)
[4]; Staphylococcus aureus (29213)
  MIC: 0.5 µg/mL (≈ 0.795 µM)
[16]
  MIC: 1 µg/mL (≈ 1.59 µM)

## Cn1cc(NC(=O)c2cc(NC(=O)c3cc(NC(=O)c4nsc(Cl)c4Cl)cn3C)cn2C)cc1C(=O)NCCN1CCOCC1 [V-mm]
Bacillus cereus (11778); Bacillus cereus (11778)
  MIC: 0.25 µg/mL (≈ 0.37 µM)
Esherichia coli (25922)
  MIC: 32 µg/mL (≈ 47.3 µM)
[4]; Staphylococcus aureus (29213)
  MIC: 0.5 µg/mL (≈ 0.739 µM)
[16]
  MIC: 32 µg/mL (≈ 47.3 µM)

## CN=C(CCNC(=O)c1cc(NC(=O)c2cc(NC(=O)c3cc(NC(=O)c4nsc(Cl)c4Cl)cn3C)cn2C)cn1C)NC [V-nn]
Bacillus cereus (11778); Bacillus cereus (11778)
  MIC: 0.064 µg/mL (≈ 0.0967 µM)
Esherichia coli (25922)
  MIC: 32 µg/mL (≈ 48.4 µM)
[4]; Staphylococcus aureus (29213)
  MIC: 0.031 µg/mL (≈ 0.0469 µM)
[16]
  MIC: 1 µg/mL (≈ 1.51 µM)

## COc1snc(C(=O)Nc2cc(C(=O)Nc3cc(C(=O)Nc4cc(C(=O)NCCNC(=N)N)n(C)c4)n(C)c3)n(C)c2)c1Cl [V-oo]
Bacillus cereus (11778); Bacillus cereus (11778)
  MIC: 0.5 µg/mL (≈ 0.776 µM)
Esherichia coli (25922)
  MIC: 32 µg/mL (≈ 49.7 µM)
[4]; Staphylococcus aureus (29213)
  MIC: 0.25 µg/mL (≈ 0.388 µM)
[16]
  MIC: 1 µg/mL (≈ 1.55 µM)
